The pEC50 is the negative decadic logarithm of the EC50, by convention in mol/L. Read a low pEC50 as a high EC50.

pEC50, pIC50: −log10 of the molar value. Several values for one entry are separate records, joined by “and”; a condition that tells them apart may be missing. Equal values may be shown once. Read-outs that look alike come from different tables or passages of the source. Numbered stars: 1 amine (or outer) side, 2 acyl side, 3 side chain; on linkers, the order of the positions; unused ones are H or OH. Bridge positions count the residues as written; N and C are the ends. Peptide text beside a SMILES is read from it. I, II: the chains in the order shown. Diglycolyl = O=C(COCC(=O)[*:2])[*:1]

A short description of assay [1]: Apoptotic (functional) activity of peptides of FIG. 5, assay not named. It is filed as cell-based. As to conditions: FIG. 5, role of the C-terminal leucine.
A further assay addresses T1, human TRAIL R2 (Homo sapiens, UniProt O14763).
T1 construct: purchased R&D Systems, Minneapolis, Minn
Description: AlphaQuest TRAIL R2 receptor binding competition assay (AlphaScreen, biotinylated TRAIL ligand vs TRAIL R2-Fc). As to conditions: competition with biotinylated TRAIL ligand. The source says: Laser excitation (680 nm) of a photosensitizer in the donor bead generates singlet state oxygen molecules, which react with a chemiluminescer in the acceptor bead to generate a detectable light signal (520-620 nm). Because the singlet O2 molecules have an extremely short half-life (i.e., t ½), a signal is generated only when the donor and acceptor beads are brought into close proximity, by TRAIL binding to the R2 receptor. The presence of unlabeled test peptide that competes with TRAIL for binding to the R2 receptor will prevent this binding, resulting in a measurable decrease in light emission.
Recombinant human TRAIL R2-Fc fusion protein (R&D Systems, Minneapolis, Minn.) is diluted in AlphaQuest® buffer to a concentration of 600 pM, pre-mixed with 1.9 μL Protein A-coated acceptor beads and 1.9 μL streptavidin-coated donor beads (Perkin-Elmer®, Waltham, Mass.), then 2 μL is added to each well of the assay plate. […] The plates are sealed with adhesive sealing film and covered with aluminum foil, centrifuged at 600 rpm for 30 seconds and incubated overnight in the dark. […] The raw data are analyzed using GraphPad Prism® software (La Jolla, Calif.) to calculate IC50 values from a 4-parameter logistic equation.
For orientation: Bead proximity is the source of the signal in Alpha formats.

Another assay concerns Jurkat cells. The format is cell-based. As to the method: The apoptotic activity of test peptides is measured using a Jurkat proliferation assay.
Jurkat cells are obtained from the American Type Culture Collection (ATCC, Manassas, Va.) and are maintained in RPMI-1640 medium supplemented with 10% FBS, 100 U/mL penicillin, and 100 […] (Growth Medium). […] Cells are resuspended at a density of 1×10^6 cells/mL in Growth Medium, and 50 μl cells is added to each well of the assay plates. The plates are incubated in a 37° C., 5% CO2 incubator for 24-48 hours. Proliferation is assessed by adding 10 μL of MTT stock solution (ATCC, Manassas, Va.) to the wells. The plates are incubated in a 37° C., 5% CO2 incubator for another 2-4 hours, followed by the addition of 100 μL of 20% SDS with 0.01 N HCl. After incubation overnight in a 37° C., 5% CO2 incubator, the plates are quantified by reading the optical density at a wavelength of 595 nm (OD595) in a SpectraMax® M5 microplate reader (Molecular Devices, Sunnyvale, Calif.). The data are analyzed using GraphPad Prism® software (La Jolla, Calif.) to calculate IC50 values from a 4-parameter logistic equation.

The next assay concerns HCT-116 cells. It is filed as cell-based. As to the method:
The apoptotic activity of test peptides is measured using an HCT-116 proliferation assay. The HCT-116 assay is used to measure the activity of TRAIL R2 agonist peptides using the colon carcinoma cell line HCT-116 (ATCC, Manassas, Va.).
In more detail, a peptide homotrimer based on the peptide monomer sequence of SEQ ID NO: 19 (See, FIG. 8B) is tested for functional activity using the HCT-116 proliferation assay. HCT-116 cells are incubated for one to two days in the presence of serially diluted peptide dimers or peptide trimers. […]
Cell viability is measured using an MTT colorimetric viability assay, a colorimetric assay that analyzes the number of viable cells by measuring the ability of mitochondrial dehydrogenase enzyme in the viable cells to cleave tetrazolium salts added to the culture medium [See, Mosmann (1983) J. Immunol. […] Using this assay, cell proliferation is assessed after 24-48 hours by adding 10 μL of MTT stock solution (ATCC, Manassas, Va.) to the wells. […] After incubation overnight in a 37° C., 5% CO2 incubator, the plates are quantified by reading the optical density at 595 nm (OD595) in a SpectraMax M5 microplate reader (Molecular Devices, Sunnyvale, Calif.). The data are analyzed using GraphPad® Prism software (La Jolla, Calif.) to calculate IC50 values from a 4-parameter logistic equation.

As for `CC[C@H](C)[C@@H]1NC(=O)[C@H](CCCNC(=N)N)NC(=O)[C@H](CC(N)=O)NC(=O)[C@H](CC(=O)O)NC(=O)[C@H](CC(C)C)NC(=O)[C@@H](NC(=O)[C@H](CC(=O)O)NC(=O)[C@H](Cc2c[nH]c3ccccc23)NC(C)=O)CSSC[C@@H](C(=O)N[C@H](C(=O)N[C@@H](CCCCN)C(N)=O)C(C)C)NC(=O)[C@H](CCC(N)=O)NC(=O)[C@H](CCCNC(=N)N)NC(=O)[C@H](CCCNC(=N)N)NC(=O)CNC1=O` [SEQ ID NO: 28 monomer] (Ac-WDCLDNRIGRRQCVK-NH2; disulfide 3-13), in assay [1], the “apoptotic activity (observed or not)” value is reported as “no apoptotic activity is observed”.
As for `CC[C@H](C)[C@@H]1NC(=O)[C@H](CCCNC(=N)N)NC(=O)[C@H](CC(N)=O)NC(=O)[C@H](CC(=O)O)NC(=O)[C@H](CC(C)C)NC(=O)[C@@H](NC(=O)[C@H](CC(=O)O)NC(=O)[C@H](Cc2c[nH]c3ccccc23)NC(C)=O)CSSC[C@@H](C(=O)N[C@H](C(=O)N[C@@H](CCCCN)C(=O)N[C@@H](CC(C)C)C(N)=O)C(C)C)NC(=O)[C@H](CCC(N)=O)NC(=O)[C@H](CCCNC(=N)N)NC(=O)[C@H](CCCNC(=N)N)NC(=O)CNC1=O` [SEQ ID NO: 19 monomer] (Ac-WDCLDNRIGRRQCVKL-NH2; disulfide 3-13), the pIC50 on human TRAIL R2 (single exemplary values and ranges over assays, read-out: binding affinity / binding activity (IC50)) is ~7.31 and 6.98 to 7.82 and 7.25 to 9.00. Besides, the “apoptotic activity (observed or not)” value in assay [1] is reported as “exhibits apoptotic activity”.
As for `CC[C@H](C)[C@@H]1NC(=O)[C@H](CCCNC(=N)N)NC(=O)[C@H](CC(N)=O)NC(=O)[C@H](CC(=O)O)NC(=O)[C@H](CC(C)C)NC(=O)[C@@H](NC(=O)[C@H](CC(=O)O)NC(=O)[C@H](Cc2c[nH]c3ccccc23)NC(C)=O)CSSC[C@@H](C(=O)N[C@H](C(=O)N[C@@H](CCCCNC(=O)COCC(=O)NCCCC[C@H](NC(=O)[C@@H](NC(=O)[C@@H]2CSSC[C@H](NC(=O)[C@H](CC(=O)O)NC(=O)[C@H](Cc3c[nH]c4ccccc34)NC(C)=O)C(=O)N[C@@H](CC(C)C)C(=O)N[C@@H](CC(=O)O)C(=O)N[C@@H](CC(N)=O)C(=O)N[C@@H](CCCNC(=N)N)C(=O)N[C@@H]([C@@H](C)CC)C(=O)NCC(=O)N[C@@H](CCCNC(=N)N)C(=O)N[C@@H](CCCNC(=N)N)C(=O)N[C@@H](CCC(N)=O)C(=O)N2)C(C)C)C(=O)N[C@@H](CC(C)C)C(N)=O)C(=O)N[C@@H](CC(C)C)C(N)=O)C(C)C)NC(=O)[C@H](CCC(N)=O)NC(=O)[C@H](CCCNC(=N)N)NC(=O)[C@H](CCCNC(=N)N)NC(=O)CNC1=O` [SEQ ID NO: 19 homodimer] (I: Ac-WDCLDNRIGRRQCVKL-NH2 / II: Ac-WDCLDNRIGRRQCVKL-NH2; disulfide I:3-I:13, II:3-II:13; linker I:15-II:15 via Diglycolyl), the pIC50 at human TRAIL R2 (single values and ranges over assays, read-out: binding activity (IC50)) is ~5.15 and 4.25 to 6.00. Besides, the negative-log EC50 (pEC50) with Jurkat cells is 5.15 to 6.02; with HCT-116 cells, around 5.79.

The values are drawn from patent US20090131317A1, “COMPOUNDS AND PEPTIDES THAT BIND THE TRAIL RECEPTOR” (AFFYMAX, INC., priority 2007, published 2009).
